# In patent publication US6355799B1, “Substituted benzene compounds, process for their preparation, and herbicidal and defoliant compositions containing them” (ISK Americas Incorporated, priority 1997, dated 2002):
# Tests used:
# Assay type in all cases: in vivo
# [1] = test system: upland rice (Oryza sp., var. Tebonnet, RICE); assay: Post-emerge test, crop safety; conditions: post-emerge, 14 days after application, rating scale 0-100
# Summary of the method: (§1)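 Compounds in acetone were track-sprayed at 187 l/ha, 15–1000 g ai/ha, onto sandy loam pots. Pre-emerge seeds were sown one day before spraying, with surface watering afterwards. Post-emerge plants were at the 2–3 leaf stage and sprayed with 0.25% v/v non-ionic surfactant. Injury was rated 0–100 at 14 days.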
# [2] = test system: field corn (Zea mays L., var. Dekalb 535, CORN); assay: Post-emerge test, crop safety; conditions: post-emerge, 14 days after application, rating scale 0-100
# Summary of the method: as §1
# [3] = test system: redroot pigweed (Amaranthus retroflexus, AMARE); assay: Pre-emerge test, greenhouse herbicide activity screening; conditions: phytotoxicity rating 0-100, 14 days after application
# Summary of the method: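 Sandy loam pots; pre-emerge: sown 1 d pre-spray, surface-watered after, then bottom-watered. Post-emerge: sown 8–21 d before, 2–3 leaf stage, + 0.25% v/v NIS, bottom-watered. Acetone, 187 l/ha track spray, 15–1000 g ai/ha. 0–100 injury score, day 14.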
# [4] = test system: upland rice (Oryza sp., var. Tebonnet, RICE); assay: Pre-emerge test, crop safety; conditions: crop damage rating 0-100, 14 days after application
# Summary of the method: (§2)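 Plants grown in 10 cm pots of sandy loam mix received acetone-dissolved compounds through a moving flat-fan nozzle. Doses ranged from 15 to 1000 g ai/ha. Pre-emerge pots were seeded one day earlier, post-emerge pots 8–21 days earlier. Fourteen days on, each pot was graded 0–100 for damage.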
# [5] = test system: field corn (Zea mays L., var. Dekalb 535, CORN); assay: Pre-emerge test, crop safety; conditions: crop damage rating 0-100, 14 days after application
# Summary of the method: as §2
# [6] = test system: sicklepod (Cassia obtusifolia, CASOB); assay: Pre-emerge test, greenhouse herbicide activity screening; conditions: phytotoxicity rating 0-100, 14 days after application
# Summary of the method: as §1
# [7] = test system: barnyardgrass (Echinochloa crus-galli, ECHCG); assay: as above; conditions: phytotoxicity rating 0-100, 14 days after application
# Summary of the method: as §1
# [8] = test system: ivyleaf morningglory (Ipomoea hederacea, IPOHE); assay: as above; conditions: phytotoxicity rating 0-100, 14 days after application
# Summary of the method: as §1
# [9] = test system: johnsongrass (Sorghum halepense, SORHA); assay: as above; conditions: phytotoxicity rating 0-100, 14 days after application
# Summary of the method: as §1
# [10] = test system: lambsquarters (Chenopodium album, CHEAL); assay: as above; conditions: phytotoxicity rating 0-100, 14 days after application
# Summary of the method: as §1
# [11] = test system: green foxtail (Setaria viridis, SETVI); assay: as above; conditions: phytotoxicity rating 0-100, 14 days after application
# Summary of the method: as §1
# [12] = test system: velvetleaf (Abutilon theophrasti, ABUTH); assay: as above; conditions: phytotoxicity rating 0-100, 14 days after application
# Summary of the method: as §1
# [13] = test system: large crabgrass (Digitaria sanguinalis, DIGSA); assay: as above; conditions: phytotoxicity rating 0-100, 14 days after application
# Summary of the method: as §1
# [14] = test system: sicklepod (Cassia obtusifolia, CASOB); assay: Post-emerge test, greenhouse herbicide activity screening; conditions: post-emerge, 14 days after application, rating scale 0-100
# Summary of the method: (§3)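 Compounds in acetone were track-sprayed at 15–1000 g ai/ha: pre-emergence onto soil sown the previous day, then top-watered to incorporate and later bottom-watered; post-emergence onto 2–3 leaf plants with 0.25% v/v surfactant, bottom-watered only. Ratings on a 0–100 phytotoxicity scale were taken at day 14.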
# [15] = test system: barnyardgrass (Echinochloa crus-galli, ECHCG); assay: as above; conditions: post-emerge, 14 days after application, rating scale 0-100
# Summary of the method: as §3
# [16] = test system: ivyleaf morningglory (Ipomoea hederacea, IPOHE); assay: as above; conditions: post-emerge, 14 days after application, rating scale 0-100
# Summary of the method: as §3
# [17] = test system: johnsongrass (Sorghum halepense, SORHA); assay: as above; conditions: post-emerge, 14 days after application, rating scale 0-100
# Summary of the method: as §3
# [18] = test system: lambsquarters (Chenopodium album, CHEAL); assay: as above; conditions: post-emerge, 14 days after application, rating scale 0-100
# Summary of the method: as §3
# [19] = test system: redroot pigweed (Amaranthus retroflexus, AMARE); assay: as above; conditions: post-emerge, 14 days after application, rating scale 0-100
# Summary of the method: as §3
# [20] = test system: green foxtail (Setaria viridis, SETVI); assay: as above; conditions: post-emerge, 14 days after application, rating scale 0-100
# Summary of the method: as §3
# [21] = test system: velvetleaf (Abutilon theophrasti, ABUTH); assay: as above; conditions: post-emerge, 14 days after application, rating scale 0-100
# Summary of the method: as §3
# [22] = test system: large crabgrass (Digitaria sanguinalis, DIGSA); assay: as above; conditions: post-emerge, 14 days after application, rating scale 0-100
# Summary of the method: as §3
smiles,measurement,setting,value
CCOC(=O)COc1c(Cl)cc(F)c(-n2c(=O)cc(C(F)(F)F)n(C)c2=O)c1NC(=O)C=Cc1ccccc1 [2-190],RICE phytotoxicity rating (crop damage),[1]; 63 g ai/ha,0
same,phytotoxicity rating RICE (crop damage),[1]; 250 g ai/ha,5
same,CORN phytotoxicity rating (crop damage),[2]; 63 g ai/ha,5
same,phytotoxicity rating CORN (crop damage),[2]; 250 g ai/ha,10
same,Pre-emerge Herbicidal Activity AMARE,[3]; 63 g ai/ha,95
same,Pre-emerge Herbicidal Activity AMARE,[3]; 250 g ai/ha,100
same,Pre-emerge Herbicidal Activity RICE,[4]; 63 g ai/ha,10
same,Pre-emerge Herbicidal Activity RICE,[4]; 250 g ai/ha,20
same,Pre-emerge Herbicidal Activity CORN,[5]; 63 g ai/ha,0
same,Pre-emerge Herbicidal Activity CORN,[5]; 250 g ai/ha,0
same,Pre-emerge Herbicidal Activity CASOB,[6]; 63 g ai/ha,30
same,Pre-emerge Herbicidal Activity CASOB,[6]; 250 g ai/ha,70
same,Pre-emerge Herbicidal Activity ECHCG,[7]; 63 g ai/ha,0
same,Pre-emerge Herbicidal Activity ECHCG,[7]; 250 g ai/ha,0
same,Pre-emerge Herbicidal Activity IPOHE,[8]; 63 g ai/ha,0
same,Pre-emerge Herbicidal Activity IPOHE,[8]; 250 g ai/ha,90
same,Pre-emerge Herbicidal Activity SORHA,[9]; 63 g ai/ha,0
same,Pre-emerge Herbicidal Activity SORHA,[9]; 250 g ai/ha,0
same,Pre-emerge Herbicidal Activity CHEAL,[10]; 63 g ai/ha,100
same,Pre-emerge Herbicidal Activity CHEAL,[10]; 250 g ai/ha,100
same,Pre-emerge Herbicidal Activity SETVI,[11]; 63 g ai/ha,0
same,Pre-emerge Herbicidal Activity SETVI,[11]; 250 g ai/ha,30
same,Pre-emerge Herbicidal Activity ABUTH,[12]; 63 g ai/ha,100
same,Pre-emerge Herbicidal Activity ABUTH,[12]; 250 g ai/ha,100
same,Pre-emerge Herbicidal Activity DIGSA,[13]; 63 g ai/ha,0
same,Pre-emerge Herbicidal Activity DIGSA,[13]; 250 g ai/ha,30
same,CASOB phytotoxicity rating,[14]; 63 g ai/ha,20
same,phytotoxicity rating CASOB,[14]; 250 g ai/ha,80
same,ECHCG phytotoxicity rating,[15]; 63 g ai/ha,0
same,phytotoxicity rating ECHCG,[15]; 250 g ai/ha,10
same,IPOHE phytotoxicity rating,[16]; 63 g ai/ha,50
same,phytotoxicity rating IPOHE,[16]; 250 g ai/ha,90
same,SORHA phytotoxicity rating,[17]; 63 g ai/ha,0
same,phytotoxicity rating SORHA,[17]; 250 g ai/ha,50
same,CHEAL phytotoxicity rating,[18]; 63 g ai/ha,90
same,phytotoxicity rating CHEAL,[18]; 250 g ai/ha,100
same,AMARE phytotoxicity rating,[19]; 63 g ai/ha,95
same,phytotoxicity rating AMARE,[19]; 250 g ai/ha,99
same,SETVI phytotoxicity rating,[20]; 63 g ai/ha,0
same,phytotoxicity rating SETVI,[20]; 250 g ai/ha,0
same,ABUTH phytotoxicity rating,[21]; 63 g ai/ha,90
same,phytotoxicity rating ABUTH,[21]; 250 g ai/ha,90
same,DIGSA phytotoxicity rating,[22]; 63 g ai/ha,0
same,phytotoxicity rating DIGSA,[22]; 250 g ai/ha,0
